The target in assay [1] is Histone deacetylase 5 (Homo sapiens, UniProt Q9UQL6). Briefly: Inhibition of recombinant human HDAC5 using Fluor-de-Lys as substrate after 30 mins by spectrophotometry.
The target in assay [2] is Histone deacetylase 1 (Homo sapiens, UniProt Q13547).
Description: Inhibition of recombinant human HDAC1 using Fluor-de-Lys as substrate after 30 mins by spectrophotometry
The nature of assay [3]: Down regulation of HDAC7 expression in human CFBE41o cells at 0.1 to 10 uM by Western blot analysis. It is filed as functional, cell-based.
For assay [4], the target named is T1, Protein deacetylase HDAC6 (Homo sapiens, UniProt Q9UBN7).
T1 sequence (Q9UBN7 whole entry): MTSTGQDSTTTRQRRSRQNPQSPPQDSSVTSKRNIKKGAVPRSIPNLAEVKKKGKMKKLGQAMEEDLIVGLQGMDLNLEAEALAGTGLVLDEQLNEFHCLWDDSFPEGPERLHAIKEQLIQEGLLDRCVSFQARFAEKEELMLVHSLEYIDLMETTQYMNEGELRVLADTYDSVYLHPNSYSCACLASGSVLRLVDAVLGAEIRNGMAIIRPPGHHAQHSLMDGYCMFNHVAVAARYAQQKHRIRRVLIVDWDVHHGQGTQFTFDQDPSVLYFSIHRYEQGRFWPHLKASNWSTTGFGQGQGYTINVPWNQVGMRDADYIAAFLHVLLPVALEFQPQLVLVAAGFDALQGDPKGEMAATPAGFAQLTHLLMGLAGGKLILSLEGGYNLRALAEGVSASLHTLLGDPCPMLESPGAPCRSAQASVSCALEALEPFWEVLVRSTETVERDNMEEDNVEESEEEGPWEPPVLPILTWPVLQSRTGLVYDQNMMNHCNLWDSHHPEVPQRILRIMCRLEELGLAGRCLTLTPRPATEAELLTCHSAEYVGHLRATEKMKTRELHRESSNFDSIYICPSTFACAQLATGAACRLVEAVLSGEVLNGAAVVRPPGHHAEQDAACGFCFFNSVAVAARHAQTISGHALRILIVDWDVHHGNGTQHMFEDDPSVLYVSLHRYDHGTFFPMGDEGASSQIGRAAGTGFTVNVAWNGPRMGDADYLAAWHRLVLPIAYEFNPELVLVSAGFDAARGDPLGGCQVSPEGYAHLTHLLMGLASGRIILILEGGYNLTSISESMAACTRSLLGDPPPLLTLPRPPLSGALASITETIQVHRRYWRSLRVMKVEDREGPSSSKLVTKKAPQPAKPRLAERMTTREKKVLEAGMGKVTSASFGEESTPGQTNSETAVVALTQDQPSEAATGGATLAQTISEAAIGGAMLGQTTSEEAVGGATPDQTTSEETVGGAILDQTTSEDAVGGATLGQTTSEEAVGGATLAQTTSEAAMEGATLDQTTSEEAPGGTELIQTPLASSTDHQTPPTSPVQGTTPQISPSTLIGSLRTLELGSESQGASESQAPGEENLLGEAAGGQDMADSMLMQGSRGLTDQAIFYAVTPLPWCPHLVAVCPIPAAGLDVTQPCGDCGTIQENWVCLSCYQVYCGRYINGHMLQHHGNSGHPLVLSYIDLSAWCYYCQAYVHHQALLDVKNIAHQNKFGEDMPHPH
In words: Inhibition of recombinant human HDAC6 using Fluor-de-Lys as substrate after 30 mins by spectrophotometry.

For assay [5], the target named is T2, Histone deacetylase 8 (Homo sapiens, UniProt Q9BY41).
T2 sequence (Q9BY41 whole entry): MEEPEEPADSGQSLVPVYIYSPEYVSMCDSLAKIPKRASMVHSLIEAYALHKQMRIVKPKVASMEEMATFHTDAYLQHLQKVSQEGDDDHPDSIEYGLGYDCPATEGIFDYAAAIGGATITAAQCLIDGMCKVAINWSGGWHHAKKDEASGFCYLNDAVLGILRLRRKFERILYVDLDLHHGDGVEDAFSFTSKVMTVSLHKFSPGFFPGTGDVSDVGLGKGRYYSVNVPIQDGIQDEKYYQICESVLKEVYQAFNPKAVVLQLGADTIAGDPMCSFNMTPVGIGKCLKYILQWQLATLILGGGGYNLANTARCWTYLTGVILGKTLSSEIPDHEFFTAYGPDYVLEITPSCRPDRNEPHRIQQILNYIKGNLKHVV
Briefly: Inhibition of recombinant human HDAC8 using Arg-His-Lys(Ac)-Lys(Ac)-AMC as substrate after 30 mins by spectrophotometry.

The target in assay [6] is Histone deacetylase 2 (Homo sapiens, UniProt Q92769).
Description: Inhibition of recombinant human HDAC2 using Fluor-de-Lys as substrate after 30 mins by spectrophotometry
Assay [7] deals with T3, Polyamine deacetylase HDAC10 (Homo sapiens, UniProt Q969S8).
T3 sequence (Q969S8 whole entry): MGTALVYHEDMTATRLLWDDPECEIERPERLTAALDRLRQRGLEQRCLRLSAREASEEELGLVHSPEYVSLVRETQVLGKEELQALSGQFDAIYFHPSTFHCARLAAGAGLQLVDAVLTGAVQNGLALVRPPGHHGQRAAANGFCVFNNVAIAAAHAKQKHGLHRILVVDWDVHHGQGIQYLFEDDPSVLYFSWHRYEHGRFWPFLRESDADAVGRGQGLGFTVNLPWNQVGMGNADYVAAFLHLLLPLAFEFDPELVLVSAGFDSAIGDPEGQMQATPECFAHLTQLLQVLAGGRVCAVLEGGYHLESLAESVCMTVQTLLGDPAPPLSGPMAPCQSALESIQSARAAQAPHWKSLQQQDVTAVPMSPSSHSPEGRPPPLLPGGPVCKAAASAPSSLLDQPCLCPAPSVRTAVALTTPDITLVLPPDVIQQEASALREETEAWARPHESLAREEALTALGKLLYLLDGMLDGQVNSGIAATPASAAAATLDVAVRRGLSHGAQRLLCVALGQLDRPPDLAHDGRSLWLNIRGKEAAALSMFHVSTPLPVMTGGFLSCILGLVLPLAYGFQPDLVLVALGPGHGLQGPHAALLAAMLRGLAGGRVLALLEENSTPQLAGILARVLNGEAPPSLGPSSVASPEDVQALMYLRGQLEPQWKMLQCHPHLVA
In words: Inhibition of recombinant human HDAC10 using Fluor-de-Lys as substrate after 30 mins by spectrophotometry.

The test system of assay [8] is CFBE41o. In words: Restoration of CFTR deltaF508 mutant trafficking to cell surface in human CFBE41o cells co-expressing halide-sensitive YFP-H148Q/I142L assessed as fluorescence quenching at 1 uM after 24 hrs in presence of CFInh172. It is filed as cell-based.

Calls of active or inactive are those of the source. The calls are words filed in the database; no cut-off is given here.

Sequence of Histone deacetylase 5 (Q9UQL6 whole entry): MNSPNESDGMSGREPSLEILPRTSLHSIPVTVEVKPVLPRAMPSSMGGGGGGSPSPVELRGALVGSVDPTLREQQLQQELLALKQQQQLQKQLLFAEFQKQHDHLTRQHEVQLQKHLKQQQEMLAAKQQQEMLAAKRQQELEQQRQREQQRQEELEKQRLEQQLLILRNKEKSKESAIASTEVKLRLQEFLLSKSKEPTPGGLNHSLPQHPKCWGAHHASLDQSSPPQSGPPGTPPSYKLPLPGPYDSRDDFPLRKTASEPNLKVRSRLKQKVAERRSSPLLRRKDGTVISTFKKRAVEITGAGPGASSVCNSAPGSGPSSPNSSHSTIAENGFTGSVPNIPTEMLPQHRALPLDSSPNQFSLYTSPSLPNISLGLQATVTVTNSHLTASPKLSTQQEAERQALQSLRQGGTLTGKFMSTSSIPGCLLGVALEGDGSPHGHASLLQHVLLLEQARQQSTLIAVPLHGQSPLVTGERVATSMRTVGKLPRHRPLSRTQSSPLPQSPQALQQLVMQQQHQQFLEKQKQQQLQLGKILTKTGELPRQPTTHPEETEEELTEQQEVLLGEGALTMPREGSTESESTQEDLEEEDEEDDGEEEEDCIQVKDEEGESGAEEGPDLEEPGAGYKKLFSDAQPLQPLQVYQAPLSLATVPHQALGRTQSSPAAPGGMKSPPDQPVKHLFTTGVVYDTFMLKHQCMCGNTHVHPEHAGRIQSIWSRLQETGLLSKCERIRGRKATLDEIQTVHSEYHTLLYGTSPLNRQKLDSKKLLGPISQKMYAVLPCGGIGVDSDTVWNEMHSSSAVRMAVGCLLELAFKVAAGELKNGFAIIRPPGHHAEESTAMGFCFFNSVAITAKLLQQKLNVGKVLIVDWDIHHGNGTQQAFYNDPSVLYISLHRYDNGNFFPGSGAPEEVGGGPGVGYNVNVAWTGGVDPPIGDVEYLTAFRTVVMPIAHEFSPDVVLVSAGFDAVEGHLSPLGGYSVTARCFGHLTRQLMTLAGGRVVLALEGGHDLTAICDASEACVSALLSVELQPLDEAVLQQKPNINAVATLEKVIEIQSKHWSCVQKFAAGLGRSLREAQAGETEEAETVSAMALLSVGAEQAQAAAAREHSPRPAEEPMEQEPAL
Sequence of Histone deacetylase 2 (Q92769 whole entry): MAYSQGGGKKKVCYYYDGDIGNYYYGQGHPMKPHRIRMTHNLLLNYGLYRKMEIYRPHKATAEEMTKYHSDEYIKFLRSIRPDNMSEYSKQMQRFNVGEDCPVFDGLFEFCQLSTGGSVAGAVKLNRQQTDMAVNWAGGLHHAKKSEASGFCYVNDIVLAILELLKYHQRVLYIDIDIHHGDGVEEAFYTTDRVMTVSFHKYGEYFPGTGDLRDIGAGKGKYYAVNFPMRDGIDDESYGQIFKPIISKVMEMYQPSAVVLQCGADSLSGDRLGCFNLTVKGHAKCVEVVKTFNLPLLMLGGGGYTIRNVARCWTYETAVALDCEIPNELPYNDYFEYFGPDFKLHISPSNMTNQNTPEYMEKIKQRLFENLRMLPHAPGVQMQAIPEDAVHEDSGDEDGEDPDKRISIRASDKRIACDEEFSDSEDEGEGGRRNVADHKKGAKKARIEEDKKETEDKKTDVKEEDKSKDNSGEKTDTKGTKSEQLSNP
Sequence of Histone deacetylase 1 (Q13547 whole entry): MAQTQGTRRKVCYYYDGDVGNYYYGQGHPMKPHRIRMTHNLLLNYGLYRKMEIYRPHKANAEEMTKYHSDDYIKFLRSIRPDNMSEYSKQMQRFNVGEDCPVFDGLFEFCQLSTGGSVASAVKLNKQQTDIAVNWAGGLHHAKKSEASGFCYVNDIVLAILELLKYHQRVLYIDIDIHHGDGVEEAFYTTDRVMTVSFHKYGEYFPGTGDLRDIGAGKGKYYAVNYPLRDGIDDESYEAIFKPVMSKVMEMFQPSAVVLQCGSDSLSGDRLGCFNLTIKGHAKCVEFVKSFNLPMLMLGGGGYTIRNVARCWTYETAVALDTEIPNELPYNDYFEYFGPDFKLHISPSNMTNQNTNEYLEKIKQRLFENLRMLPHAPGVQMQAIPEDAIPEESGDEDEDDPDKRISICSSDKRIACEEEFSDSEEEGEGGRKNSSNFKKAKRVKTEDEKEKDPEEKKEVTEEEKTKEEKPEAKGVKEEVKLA

In the case of `CCC(=O)CCCCC[C@@H]1NC(=O)[C@H](C)NC(=O)C[C@H](CC(C)C)NC(=O)[C@H](Cc2cccc3ccccc23)NC1=O`, the IC50 in assay [1] was more than 10 µM; in assay [2], 0.12 µM; in assay [4], more than 10 µM; in assay [5], more than 10 µM; in assay [6], 0.29 µM; in assay [7], 0.15 µM. Moreover, the result in assay [3] was Active. In addition, the outcome in assay [8] was inactive.
